pIC50: −log10 of the molar value.
Biological target: Sodium-dependent dopamine transporter (Homo sapiens, UniProt Q01959, F472L)
Assay: Inhibition of [3H]dopamine uptake at human DAT F472L mutant expressed in african green monkey COS1 cells after 48 hrs
Assay type: cell-based, COS-1

Sodium-dependent dopamine transporter, sequence (Q01959 whole entry F472L): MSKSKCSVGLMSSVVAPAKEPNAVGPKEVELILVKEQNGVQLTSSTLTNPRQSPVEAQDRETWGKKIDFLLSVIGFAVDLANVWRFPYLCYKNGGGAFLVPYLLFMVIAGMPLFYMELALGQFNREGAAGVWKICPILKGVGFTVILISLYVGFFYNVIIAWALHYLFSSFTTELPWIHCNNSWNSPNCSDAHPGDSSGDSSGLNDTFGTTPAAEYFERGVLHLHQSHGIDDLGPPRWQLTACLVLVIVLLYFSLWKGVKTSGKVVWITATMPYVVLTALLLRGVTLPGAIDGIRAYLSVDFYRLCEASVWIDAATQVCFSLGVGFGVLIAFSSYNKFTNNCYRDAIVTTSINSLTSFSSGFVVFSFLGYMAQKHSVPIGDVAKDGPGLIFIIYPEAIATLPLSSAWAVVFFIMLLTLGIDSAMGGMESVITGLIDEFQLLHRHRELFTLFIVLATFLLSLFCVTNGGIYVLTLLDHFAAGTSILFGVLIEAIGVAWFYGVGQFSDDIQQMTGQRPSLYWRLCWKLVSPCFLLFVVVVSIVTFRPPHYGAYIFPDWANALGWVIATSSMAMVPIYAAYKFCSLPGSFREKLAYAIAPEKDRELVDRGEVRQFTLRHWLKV

CC(C)C[C@@H]1NC(=O)[C@H](CCCCN)NC(=O)[C@H](Cc2ccc(O)cc2)NC(=O)CNC(=O)[C@@H]2CSSC[C@H](NC1=O)C(=O)N[C@@H](Cc1cnc[nH]1)C(=O)N1C[C@H](O)C[C@H]1C(=O)N[C@H](C(=O)O)CSSC[C@H](NC(=O)[C@@H](NC(=O)CNC(=O)[C@@H](N)CC(N)=O)C(C)C)C(=O)N2 showed a pIC50 of 3.70.

Reference: ChEMBL document CHEMBL1156458, “chi-Conotoxin and tricyclic antidepressant interactions at the norepinephrine transporter define a new transporter model” (J Biol Chem, 2007)
